Reference: patent publication US6455582B1, “Sulohydroxamic acids and sulohyroxamates and their use as MEK inhibitors” (Warner-Lambert Company, priority 1999, dated 2002)

Target: GST-MEK / GST-MAPK (p45MEK, p44MAP kinase) cascade
Assay: Cascade assay for inhibitors of the MAP kinase pathway (APK)
Type: biochemical
Protocol: Cascade assay for inhibitors of the MAP kinase pathway
Incorporation of ^32P into myelin basic protein (MBP) is assayed in the presence of a glutathione S-transferase fusion protein containing p44MAP kinase (GST-MAPK) and a glutathione S-transferase fusion protein containing p45MEK (GST-MEK). The assay solution contains 20 mM HEPES, pH 7.4, 10 mM MgCl2, 1 mM MnCl2, 1 mM EGTA, 50,μM [γ-^32P]ATP, 10 μg GST-MEK, 0.5 μg GST-MAPK and 40 μg MBP in a final volume of 100 μL. Reactions are stopped after 20 minutes by addition of trichloroacetic acid and filtered through a GF/C filter mat. ^32P retained on the filter mat is determined using a 120S Betaplate. Compounds are assessed at 10 μM for ability to inhibit incorporation of ^32P
To ascertain whether compounds are inhibiting GST-MEK or GST MAPK, two additional protocols are employed. In the first protocol, compounds are added to tubes containing GST-MEK, followed by addition of GST-MAPK, MBP and [γ-^32P]ATP. In the second protocol, compounds are added to tubes containing both GST-MEK and GST-MAPK, followed by MBP and [γ-^32P]ATP.
Compounds that show activity in both protocols are scored as MAPK inhibitors, while compounds showing activity in only the first protocol are scored as MEK inhibitors.

O=S(=O)(NOCC1CC1)c1ccc(F)c(F)c1Nc1ccc(I)cc1Cl [PD 0297447, 2-(2-Chloro-4-iodo-phenylamino)-N-cyclopropylmethoxy-3,4-difluoro-benzenesulfonamide]
IC50: 965 nM
